Results reported in PubChem BioAssay AID179 (DTP/NCI, 2004).
“And” between values parts separate entries of the source, which are not always exact repeats. Equal values may be shown once. The source made the active and inactive calls.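 The calls were made as follows: active = compounds giving half or more protection of infected cells from virus-caused growth loss, again on retest; inactive = the rest.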

Test system: CEM cells HIV-1 protection, formazan growth assay
Assay: NCI AIDS Antiviral Assay
Settings: for IC50: measured here: growth of uninfected CEM cells
In short: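 Category rules: moderately active means at least 50% protection on retest, and confirmed active means 100% protection reproducibly. The underlying data came from a formazan growth assay in HIV-1-infected CEM cells.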

Compound	EC50	IC50	outcome
Cn1c(N)cc[n+](C2CCC(CO)O2)c1=O (stereo not given) (tested in a mixture with another compound)	9.12 µM	708 µM	–
C[CH2][Ge]([CH2]C)([CH2]C)[O]C(=O)C(OC(C)=O)c1ccccc1 (stereo not given)	> 251 µM	195 µM	–
COc1ccc(C2C(Cl)C(=O)N2NC(=O)c2ccc(N)cc2)cc1OC (stereo not given)	> 200 µM	8.51 µM	–
CC(=O)C1(O)C(=[N+]=[N-])C(=O)Nc2ccccc21 (stereo not given)	> 200 µM	66.1 µM	–
O=C1CSC(c2ccccc2)C1C(=O)c1ccc(NCc2nc3ccccc3[nH]2)cc1 (stereo not given)	> 200 µM	8.71 µM	–
OCC1OC(n2cnc3c(=S)nc[nH]c32)C(O)C1O (stereo not given)	> 871 µM	617 µM	–
COc1ccc(-c2oc3ccc(C)cc3c(=O)c2O)cc1	> 52.5 µM	> 52.5 µM	–
COC(=O)C(C)(N=Cc1ccccc1)c1ccccc1 (stereo not given)	> 200 µM	> 200 µM	–
CCCCNC(=O)C1=C(C)NC(C)=C(C(=O)NCCCC)C1	> 200 µM	> 200 µM	–
CC1OC(OC2C(CO)OC(O[C@H]3CC[C@@]4(C)C(=CC[C@H]5[C@@H]6C[C@@H]7O[C@](O)(CC[C@@H](C)COC8OC(CO)C(O)C(O)C8O)[C@@H](C)[C@@H]7[C@@]6(C)CC[C@@H]54)C3)C(OC3OC(C)C(O)C(O)C3O)C2O)C(O)C(O)C1O (stereo not given in full)	> 200 µM	1.86 µM	–
N#CC1CCCCCCCCCCC(=O)N(CCCl)C1=O (stereo not given)	> 60.3 µM	> 60.3 µM	–
Cc1ccc2cc(-c3ccccc3)c3ccc(C)nc3c2n1.Cc1ccc2cc(-c3ccccc3)c3ccc(C)nc3c2n1.O=C1OC(C(O)C[O-])C(O)=C1O.[Cu+]	> 25.1 µM	1.29 µM	–
O=C(CCc1n[nH]c(=S)o1)Nc1cc(Cl)c(Cl)cc1Cl	–	–	inactive
Cc1cn(C2CC(N=[N+]=[N-])C(COC(=O)C3CCC(=O)N3)O2)c(=O)[nH]c1=O (stereo not given)	–	49 µM	active
O=S(=O)(Nc1nnc2c3ccccc3cnn12)c1ccc(F)cc1S	110 µM	468 µM	–
CC(C)C(=O)OCC1OC(n2c(Br)nc3c(=O)[nH]c(N)nc32)C(OC(=O)C(C)C)C1OC(=O)C(C)C (stereo not given)	> 200 µM	91.2 µM	–
O=c1ncc2[nH]c(=S)[nH]c2[nH]1	> 200 µM	> 200 µM	–
Nc1c(Cl)cccc1-c1c[nH]cc1Cl	> 794 µM	> 100 µM	–
Cc1nn(C(=O)Cc2ccccc2)c2c1C(c1ccc(N(C)C)cc1)SC(N)=N2 (stereo not given)	55 µM	> 200 µM	–
CN1C(=O)N/C(=C\c2ccc(S(=O)(=O)NN)cc2)C1=O	> 200 µM	> 100 µM	–
CC(C)N1CC2CC(CN(C(=O)c3ccc(Cl)cc3)C2)C1	> 427 µM	> 427 µM	–
COc1nc2c(c(=O)n1C)N=C(c1ccccc1)[C@H](C(CC(=O)c1ccccc1)c1ccccc1)C(c1ccccc1)N2 (stereo not given in full)	–	–	inactive

Compound	EC50	IC50	outcome
CNc1cc(C)ccc1S(=O)(=O)c1ccccc1[N+](=O)[O-]	0.219 µM	30.2 µM	–
CC1(O)C=CC(=O)C=C1	> 2000 µM	3.47 µM	–
COc1cc([N+](=O)[O-])c(S(=O)(=O)O)cc1N	> 1000 µM	> 1000 µM	–
Cn1c([N+](=O)[O-])cnc1N1CCN(c2nncs2)C1=O	> 200 µM	> 200 µM	–
COc1ccc(/C=C2\CN(C)C/C(=C\c3ccc(OC)c(OC)c3OC)C2=O)c(OC)c1OC	> 2 µM	0.331 µM	–
COC1=CC(=O)C2[C@H]3Cc4ccccc4[C@H]3C2(C)C1=O (stereo not given in full)	> 51.3 µM	> 51.3 µM	–
O=C(CC(=O)N1N=C(n2ccc3ccccc32)CC1c1ccccc1)Nc1ccccc1Cl (stereo not given)	> 8.32 µM	> 8.32 µM	–
C=CCOCn1cnc2c(=O)[nH]c(N)nc21	> 200 µM	> 200 µM	–
COC1(OC)C2(Cl)C(Cl)=C(Cl)C1(Cl)C1C2C2CC1(C(=O)O)c1ccccc12 (stereo not given)	> 251 µM	13.5 µM	–
COc1ccc(-c2coc3c4c(c5c(c3c2=O)OC(C)(C)CC5)OC(C)(C)C=C4)cc1OC	> 39.8 µM	12.3 µM	–
Cc1c(C)c(C)c(-n2[nH]c(=O)n(C)c2=O)c(C)c1C	> 200 µM	> 200 µM	–
COc1cc(OC)c(/C=C/c2ccncn2)c(OC)c1	> 182 µM	93.3 µM	–
FC1(F)[Se]C2C3CCC(C3)C2C1(F)F (stereo not given)	> 200 µM	> 200 µM	–
NC1=NC(=O)/C(=C/c2ccccc2[N+](=O)[O-])C(N)=N1	–	–	inactive
c1ccc(CCN(CCc2ccccn2)CCc2ccccn2)cc1	–	–	inactive
CCOC(=O)N/N=C(\Cc1ccc([N+](=O)[O-])cc1)OCC	> 200 µM	> 200 µM	–
COC(=O)N1CC=CC2(CCOCc3ccccc3)CC[C@@](O)(c3ccccc3NC(=O)C(C)(C)C)C(=O)C12 (stereo not given in full)	> 35.5 µM	> 35.5 µM	–
OC(CCN1CC2CCC(CC2)C1)(Cc1ccccc1)c1cccs1 (stereo not given)	> 200 µM	47.9 µM	–
CCCCCCCCCCCCCCNC1=C(OC)C(=O)C(NCCCCCCCCCCCCCC)=C(OC)C1=O	> 79.4 µM	> 79.4 µM	–
CCCCCC/C=C\CCCCCCCCCC1=CC(=O)C=C(OC)C1=O	> 9.55 µM	> 9.55 µM	–
Clc1cccc(Cl)c1Nc1ccccc1Cc1nc2ccccc2[nH]1	> 200 µM	75.9 µM	–
O=C1N(Cl)C2(c3ccccc3)N(Cl)C(=O)N(Cl)C2(c2ccccc2)N1Cl (stereo not given)	> 200 µM	> 200 µM	–

Compound	EC50	IC50	outcome
COc1ccc2c(c1)C(=O)OCCC2	> 200 µM	> 200 µM	–
CC(C)=CCC/C(C)=C/CCC(C(=O)COCc1ccccc1)P1(=O)OC(C)(C)CN1C(C)(C)C (stereo not given)	> 200 µM	61.7 µM	–
Cc1ccnc(NC(=O)Nc2ccccc2Cl)c1	> 200 µM	> 200 µM	–
CS(=O)(=O)c1nc(N)nc2nc[nH]c12	> 200 µM	> 200 µM	–
CCOC(=O)c1[nH]n(-c2ccccc2)c(=O)c1/C=N/C(=S)NCc1ccccc1	> 200 µM	44.7 µM	–
O=CNC12C(=O)NC(=O)C1(C(=O)O)C21CCCCC1 (stereo not given)	> 200 µM	> 200 µM	–
c1ccc(C2=NC3(CCCCC3)N=C2c2ccccc2)cc1	> 200 µM	135 µM	–
Cc1noc(NS(=O)(=O)c2ccc(N=c3c4ccccc4n(C)c4ccccc34)cc2)c1C	–	–	inactive
CC(C)=CCCC1(C)C2COC(=O)C21 (stereo not given)	> 200 µM	70.8 µM and 15.1 µM	–
CC(=O)NCc1c(C(N)=O)ncn1Cc1ccccc1	–	–	inactive
CCN(CC)CCCNCc1cc(Cl)c2cccnc2c1O	> 200 µM	9.77 µM	–
O=c1c(O)c(-c2ccccc2)oc2c(CP(=O)(O)O)cccc12	> 200 µM	162 µM	–
C[CH2][Ge]1([CH2]C)[CH2]CC2(CCN(CCCN(C)C)C2)C[CH2]1	> 251 µM	1.38 µM	–
COc1ccc(C(C#N)NCCCCCCNC(C#N)c2ccc(OC)cc2)cc1 (stereo not given)	> 200 µM	> 200 µM	–
COc1ccc2c(n1)Sc1nc3ccccc3nc1N2	> 200 µM	24.5 µM	–
CC(C)(C)OC(=O)NC(Cc1ccc(OCc2ccccc2)cn1)C(N)=O (stereo not given)	> 200 µM	> 100 µM	–
Cc1cccc(C)c1NC(=O)CCc1n[nH]c(=S)o1	> 468 µM	> 468 µM	–
CCOC(=O)C1C(c2ccc(OC)cc2)C(C(=O)OCC)C(O)(C(F)(F)F)OC1(O)C(F)(F)F (stereo not given)	> 257 µM	151 µM	–
O=C1NC(=O)C(CN2C(=O)/C(=C/c3cccc(O)c3)SC2=S)C(=O)N1	> 200 µM	91.2 µM	–
CCOC(=O)C1=C(C)C2C=C(c3cccs3)CC(c3ccc(Cl)cc3)=C2OC1=O (stereo not given)	> 200 µM	91.2 µM	–
COc1cc2nc3c(nc2cc1OC)-c1ccccc1C3=O	3.02 µM	9.33 µM	–
COc1ccccc1CN1CC(C)N(N=Cc2c3c(O)c4c(O)c(C)c5c(c4c2O)C(=O)C(C)(O/C=C/C(OC)C(C)C(OC(C)=O)C(C)C(O)C(C)C(O)C(C)/C=C/C=C(\C)C(=O)N3)O5)C(C)C1 (stereo not given)	> 200 µM	7.76 µM	–

Compound	EC50	IC50	outcome
CSc1nc(NC2OC(COC(C)=O)C(OC(C)=O)C(OC(C)=O)C2OC(C)=O)c(N=CC=Nc2c(NC3OC(COC(C)=O)C(OC(C)=O)C(OC(C)=O)C3OC(C)=O)nc(SC)[nH]c2=O)c(=O)[nH]1 (stereo not given)	–	–	inactive
O=C(NNCc1ccccc1O)c1ccccc1O	> 200 µM	2.88 µM	–
COc1ccc(OC)c(/C=C2/C(=O)N=C(NC(C)=O)N2C)c1	> 200 µM	> 200 µM	–
O=C1c2ccccc2[Se](=O)N1c1ccccc1 (stereo not given)	1.17 µM	14.1 µM	–
Cc1ccc2nc(NC(=S)SSC(=S)Nc3nc4ccc(C)cc4s3)sc2c1	> 200 µM	0.537 µM	–
COc1ccc2c(c1)C(=O)C1(C2)[C@H](c2ccccc2)C2C(=O)c3cc(OC)ccc3C2[C@H]1c1ccccc1 (stereo not given in full)	> 200 µM	138 µM	–
CN(c1ccccc1Cl)S(=O)(=O)c1ccccc1	> 200 µM	70.8 µM	–
CN(C)CCOCn1nnc2ccccc21	–	–	inactive
CC1(C)N=C(/C=N/O)C(C)(C)N1O	> 200 µM	> 200 µM	–
COC(=O)c1c2c(cc3c1CC1(C3)Cc3cc4c(c(C(C)=O)c3C1)CCC4)C=CC2 (stereo not given)	> 200 µM	> 200 µM	–
Cn1c(=O)c2nc3n(c2n(C)c1=O)C(=O)C(C#N)N=N3 (stereo not given)	> 200 µM	> 200 µM	–
c1ccc2c(C3NCCc4[nH]cnc43)cccc2c1 (stereo not given)	> 525 µM	> 525 µM	–
c1ccc(-c2nnc(-c3ccccn3)c3c2C[C@@H]2C[C@@H]4Cc5c(-c6ccccn6)nnc(-c6ccccn6)c5[C@@H]4[C@H]32)nc1	> 200 µM	> 200 µM	–
COc1ccc(C(=C(C#N)C#N)c2ccc(OC)cc2)cc1	–	–	inactive
O=C(O)CCC1(CCC(=O)O)CCCCCCCCC(CCC(=O)O)(CCC(=O)O)C(=O)C1=O	> 200 µM	> 200 µM	–
O=P1(Oc2ccccc2)Nc2cc(Cl)ccc2S1 (stereo not given)	> 45.7 µM	22.4 µM	–
Cc1ccc(C2(O)c3ccccc3C(=O)N(C)C2(O)c2ccc(C)cc2)cc1 (stereo not given)	> 200 µM	12.9 µM	–
COC(=O)C1C=CCON2CCc3c(n(S(=O)(=O)c4ccccc4)c4ccccc34)C12 (stereo not given)	> 22.9 µM	> 22.9 µM	–
O=[N+]([O-])Cc1cnc2nncn2n1	–	–	inactive
